Results: EP3848017A1, “ORAL CARE COMPOSITION CONTAINING INDOLE COMPONENTS FOR TREATING CARIES” (3M Innovative Properties Company, priority 2020, dated 2021)

system: in vitro human saliva microcosm biofilm; assay: Determination of Lactic Acid Release (LAR) after Permanent Exposure Procedure (LDH-NAD-PMS-MTT enzyme assay); assay type: cell-based; conditions: Indole 0.07 wt.% in MCM-1% sucrose, about 26 hours biofilm growth, 37 °C, vs untreated control TC0, negative number = release of lactic acid reduced
Procedure: To determine the metabolic activity of the biofilm sample, the accumulation of lactic acid in the supernatant (1.0 ml PBS-solution with 5% sucrose per each biofilm sample disc) was measured by using the Lactic acid dehydrogenase (LDH)- Nicotinamide-adenine-dinucleotide (NAD)-Phenazine Methosulphate (PMS) - Thiazolyl blue tetrazolium bromide (MTT) - enzyme assay. To ensure that only freshly produced lactic acid is determined, the biofilm samples were washed four times with 1.0 ml PBS solution for 30 sec each. After 30 min the accumulated amount of lactic acid in the supernatant was measured by analyzing 50 µl of the supernatant. The lactic acid was quantified by the lactic acid specific enzyme assay described above. Known correlation between measured enzyme activity and amount of lactic acid was used to translate measured enzyme activity into the amount of lactic acid present in sample of the supernatant. In accordance to the validation of the in vitro human saliva microcosm biofilm model, a compound should lower the lactic acid release in permanent application of at least 40 or at least 50 % in comparison to the untreated biofilm control. […] Bovine sample disks of about 10 x 10 mm (+/- 2mm) were incubated in a 24 well plate containing 1.8 ml medium in an incubator at 37°C and 60 rpm circular movement. The treatment composition described below were added by pipetting and removed by a suction pump. • Day 1: Four-hours inoculation of bovine sample disks with saliva-mcm media (MCM = mucine containing medium plus 1 % sucrose) at 37 °C (without active substance). • Fresh medium (MCM-1% sucrose) containing the respective amounts of indole component as given in Table 2. This Treatment Composition was used for another 3-hour incubation. • Fresh medium (MCM-1% sucrose and Treatment Composition) for storage for about 14h at 37 °C. • Day 2: Fresh medium (MCM-1% sucrose and Treatment Composition) for 2-hour incubation. • Fresh medium (MCM-1% sucrose and Treatment Composition) for another 2-hour incubation. […]

With `COc1ccc2[nH]cc(CC(=O)O)c2c1` [TC2 - IA2, 5-Methoxy-3-Indoleacetic acid] as the molecule, how does the inhibition at 0.07 % read?
Its inhibition at 0.07 % is 87.8%.

same assay, conditions: Indole 0.073 wt.% in MCM-1% sucrose, about 26 hours biofilm growth, 37 °C, vs untreated control TC0, negative number = release of lactic acid reduced

Which inhibition at 0.073 % does the source give for `O=C(O)CCc1c[nH]c2ccccc12` [TC1 - IA1, Indole-3-propionic acid] here?
The inhibition at 0.073 % was 95.3%.

same assay, conditions: Indole 0.1 wt.% in MCM-1% sucrose, about 26 hours biofilm growth, 37 °C, vs untreated control TC0, negative number = release of lactic acid reduced

Which inhibition at 0.1 % does the source give for `O=C(O)Cc1c[nH]c2ccccc12` [TC3 - IA3, Indole acetic acid] here?
Its inhibition at 0.1 % is 78%.

system: lactic acid producing bacteria in an oral biofilm; assay: not given; conditions: qualitative statement; amino acids, as described in EP 18183601.6; cited from earlier work

With `N=C(N)NCCC[C@H](N)C(=O)O` [arginine] as the molecule, how does the “reducing the lactic-acid release of bacteria in a biofilm” value (from here on “reducing the lactic-acid release”) read?
Its value is “not effective”.

For `NCCCC[C@H](N)C(=O)O` [lysine], which “reducing the lactic-acid release” value is on record?
Its value is “useful”.

With `CC[C@H](C)[C@H](N)C(=O)O` [isoleucine] as the molecule, how does the “reducing the lactic-acid release” value read?
The value was “useful”.

With `CSCC[C@H](N)C(=O)O` [methionine] as the molecule, how does the “reducing the lactic-acid release” value read?
Its value is “useful”.

With `O=C(O)[C@@H]1CCCN1` [proline] as the molecule, how does the “reducing the lactic-acid release” value read?
Its value is “not effective”.

Which “reducing the lactic-acid release” value does the source give for `NCC(=O)O` [glycine] here?
Its value is “useful”.

Which “reducing the lactic-acid release” value does the source give for `N[C@@H](CO)C(=O)O` [serine] here?
The value was “useful”.

For `N[C@@H](Cc1c[nH]cn1)C(=O)O` [histidine], which “reducing the lactic-acid release” value is on record?
Its value is “not effective”.

With `CC(C)C[C@H](N)C(=O)O` [leucine] as the molecule, how does the “reducing the lactic-acid release” value read?
The value was “useful”.

For `N[C@@H](CC(=O)O)C(=O)O` [aspartic acid], which “reducing the lactic-acid release” value is on record?
The value was “not effective”.

With `NC(=O)CC[C@H](N)C(=O)O` [glutamine] as the molecule, how does the “reducing the lactic-acid release” value read?
Its value is “not effective”.

Which “reducing the lactic-acid release” value does the source give for `C[C@@H](O)[C@H](N)C(=O)O` [threonine] here?
The value was “useful”.

Which “reducing the lactic-acid release” value does the source give for `N[C@@H](Cc1c[nH]c2ccccc12)C(=O)O` [tryptophan] here?
The value was “useful”.

With `N[C@@H](Cc1ccccc1)C(=O)O` [phenylalanine] as the molecule, how does the “reducing the lactic-acid release” value read?
Its value is “useful”.

For `N[C@@H](Cc1ccc(O)cc1)C(=O)O` [tyrosine], which “reducing the lactic-acid release” value is on record?
The value was “not effective”.

With `CC(C)[C@H](N)C(=O)O` [valine] as the molecule, how does the “reducing the lactic-acid release” value read?
The value was “useful”.
